From a melting point compilation (Tetko et al.; mined from patent text by program, amines drawn as free bases though some values may be those of a salt)

Question: Which melting point does the source give for `O=c1nc(-c2ccnc(-c3ccccc3)c2)sc2ccccc12` here?
Answer: 163 °C

Question: Which melting point does the source give for `COc1ccc(CNC(=O)c2cc3c(=O)n(Cc4ccc([N+](=O)[O-])nc4)c(=O)n(C)c3s2)cc1` here?
Answer: 238 to 241 °C

Question: Which melting point does the source give for `Clc1ccc2c(C3=CCNCC3)c[nH]c2c1Cl` here?
Answer: 252 to 254 °C

Question: Which melting point does the source give for `CCCCc1oc2ccc(CO)cc2c1C1(c2ccc(O)cc2)OCCO1` here?
Answer: 100 to 101 °C

Question: Which melting point does the source give for `COc1cc(C)c(Br)cc1OCc1ccccc1` here?
Answer: 110 to 111 °C

Question: For `N#Cc1cn(-c2ccc(C(F)(F)F)cc2)c(=O)n(SC(Cl)(Cl)Cl)c1=O`, which melting point is on record?
Answer: 167 to 168 °C

Question: Which melting point does the source give for `O=C(O)CN=C(O)c1ccc(C(O)=NCC(=O)O)c2c(C(=O)O)ccc(C(=O)O)c12` here?
Answer: > 300 °C

Question: For `CC1(C)CCC(C)(C)c2cc(-c3cc(-c4ccc(C(=O)O)cc4)ccc3OCc3ccccc3)ccc21`, which melting point is on record?
Answer: 241 to 244 °C

Question: With `Clc1cc(Cl)c2cccc3c2c1N=C3NCCCn1ccnc1` as the compound, how does the melting point read?
Answer: 182 to 183 °C

Question: For `CC(C)c1cn2ccccc2c1Sc1ccc(O)cc1`, which melting point is on record?
Answer: 100 °C

Question: With `N#Cc1ccc(-c2cc3c(Cl)ncnc3[nH]2)cc1` as the compound, how does the melting point read?
Answer: 296 to 297 °C

Question: Which melting point does the source give for `C[C@@H](CO)Cn1c(C(=O)NCc2cc(C(F)(F)F)cc(C(F)(F)F)c2)c(-c2ccccc2)c2cccnc2c1=O` here?
Answer: 101 to 103 °C

Question: Which melting point does the source give for `O=C1C(=Cc2ccncc2)C(=O)c2ccccc21` here?
Answer: 152 to 157 °C

Question: For `OCCCc1c[nH]c2ccc(-n3cnnc3)cc12`, which melting point is on record?
Answer: 205 to 207 °C

Question: For `OCCCOc1cccc(NC(=S)NCC(F)(F)F)n1`, which melting point is on record?
Answer: 123 to 124 °C

Question: For `CSc1ccc(C=CC(=O)C=Cc2ccc(SC)cc2)cc1`, which melting point is on record?
Answer: 143 to 145 °C

Question: For `CCOC(=O)c1c(Cn2ccnn2)nc2cc(OC)c(OC)cc2c1-c1ccc(OC)c(OC)c1`, which melting point is on record?
Answer: 195 to 196 °C

Question: Which melting point does the source give for `Cn1ccnc1S(=O)(=O)C(C)(Cc1ccc(-c2ccccc2)cc1)C(=O)NO` (centres undefined) here?
Answer: 112 °C

Question: With `COc1cccc(COCCC(C(=O)O)c2ccccc2)c1` (centres undefined) as the compound, how does the melting point read?
Answer: 112 to 114 °C

Question: Which melting point does the source give for `S=C1N=c2cc(Cl)c(Cl)cc2=N1` here?
Answer: 328 to 330 °C

Question: With `COC(=O)c1ccc(COc2cc3c(=O)ccn4c5ccc(Br)cc5c(c2)c34)nc1` as the compound, how does the melting point read?
Answer: 75.2 to 76.3 °C

Question: With `CCCOc1ncc2c(=O)[nH]c(-c3ccccc3OCCC)nc2n1` as the compound, how does the melting point read?
Answer: 157 to 158 °C

Question: Which melting point does the source give for `Oc1nn(-c2ccc(Cl)c(Cl)c2)cc1-c1ccccc1` here?
Answer: 244 to 245 °C

Question: With `NCCCCCCCNC(=O)COCC(=O)NC1CCC2C3Cc4ccccc4C2(CCN3)C1` (centres undefined) as the compound, how does the melting point read?
Answer: 83 to 85 °C

Question: With `CCOC(=O)c1c(-c2ccccc2)nc2ccccn12` as the compound, how does the melting point read?
Answer: 68 °C

Question: For `COc1cccc(C2(CCC(=O)O)NC(=O)NC2=O)c1` (centres undefined), which melting point is on record?
Answer: 138 °C

Question: With `O=P(O)(O)c1cccc(OCc2ccc3ccccc3c2)c1` as the compound, how does the melting point read?
Answer: 131 to 134 °C

Question: With `CNC(=O)N1CCc2nc(N)sc2C1` as the compound, how does the melting point read?
Answer: 202 °C

Question: With `CC(=O)Nc1cc(F)ccc1F` as the compound, how does the melting point read?
Answer: 124 to 125 °C

Question: Which melting point does the source give for `N#CC1CN1C(=O)NC(=O)c1cccc([N+](=O)[O-])c1` (centres undefined) here?
Answer: 156 to 158 °C

Question: For `CCOC(=O)C1(C)OC(C)=C(O)C1=O` (centres undefined), which melting point is on record?
Answer: 89.2 to 89.5 °C

Question: Which melting point does the source give for `CC(C)(C)OC(=O)C[C@@H]1C[C@@H](COc2ccc(-c3ccc(C#N)c(Cl)c3)cc2)NC1=O` here?
Answer: 140 to 142 °C

Question: With `N=C(NCCCc1c[nH]cn1)N[N+](=O)[O-]` as the compound, how does the melting point read?
Answer: 156 to 158 °C

Question: Which melting point does the source give for `N#Cc1c(O)nc2onc(-c3ccccc3)c2c1N` here?
Answer: 251 °C

Question: Which melting point does the source give for `COc1cc(C(=O)N2Cc3cccn3Cc3ccccc32)ccc1[N+](=O)[O-]` here?
Answer: 191 to 192 °C

Question: Which melting point does the source give for `O=C1CC(SCc2ccccc2)N1` (centres undefined) here?
Answer: 50 to 51 °C

Question: Which melting point does the source give for `COc1ccc(OCc2ccccc2)c2c1OCCO2` here?
Answer: 70 °C

Question: Which melting point does the source give for `Cc1ccc(Cl)cc1C1CC(=O)c2c(C)ccnc2C1` (centres undefined) here?
Answer: 125 to 127 °C

Question: For `CNCCCNC(=O)[C@@H]1CCCN1S(=O)(=O)c1ccc(Cl)c(COc2cccc3c(C)cc(C)nc23)c1Cl`, which melting point is on record?
Answer: 85 °C

Question: For `C#CCc1c(F)c(F)c(CO)c(F)c1F`, which melting point is on record?
Answer: 51 to 52 °C

Question: Which melting point does the source give for `Nc1ccsc1C(=O)NCC1CCN(CC2COc3ccccc3O2)CC1` (centres undefined) here?
Answer: 144 to 146 °C

Question: Which melting point does the source give for `CC(C)OP(=O)(CC1(C(=O)O)CCCC1)OC(C)C` here?
Answer: 53 to 57 °C

Question: With `CS(=O)(=O)c1ccc(-c2cc(=O)n(CC(=O)c3ccccc3)nc2-c2ccc(F)cc2)cc1` as the compound, how does the melting point read?
Answer: 178 to 180 °C

Question: With `Cc1cc(C(=O)N2Cc3cccn3Cc3ccccc32)ccc1C1=CCCCC1` as the compound, how does the melting point read?
Answer: 173 to 175 °C

Question: With `Cc1cc2c(cc1C)CCC(C(=O)O)=C2` as the compound, how does the melting point read?
Answer: 222 to 223 °C

Question: Which melting point does the source give for `CC(Cc1n[nH]c(=O)c2ccccc12)c1cccnc1` (centres undefined) here?
Answer: 142 °C

Question: For `CC(C)(C)OC(=O)N1CCCN(c2ccc(F)cc2)CC1`, which melting point is on record?
Answer: 88 to 89 °C

Question: Which melting point does the source give for `CN1NN=C(c2ccc3c(c2)S(=O)(=O)c2ccccc2C3=O)N1` here?
Answer: 204 to 205 °C

Question: With `COC(=O)c1ccccc1Nc1c(Cl)ccc(C)c1Cl` as the compound, how does the melting point read?
Answer: 130 to 131 °C

Question: With `CCOC(=O)c1cnc(-c2ccc(Cl)cc2)s1` as the compound, how does the melting point read?
Answer: 144 to 145 °C

Question: Which melting point does the source give for `Cc1c(CCN(C)C(=O)OC(C)(C)C)c2cc(S(=O)(=O)c3ccc(C(F)(F)F)cc3)ccc2n1C` here?
Answer: 141 to 144 °C

Question: Which melting point does the source give for `CNC(=O)N1CCc2[nH]cnc2C1C1CCCCC1` (centres undefined) here?
Answer: 250 °C

Question: For `COc1cccc(-n2c3c(c(=O)c4cccnc42)CCO3)c1`, which melting point is on record?
Answer: 194 to 196 °C

Question: With `CCCOC(=O)C1=C(N)NC(C)=C(C(=O)OC)C1c1cccc([N+](=O)[O-])c1` (centres undefined) as the compound, how does the melting point read?
Answer: 155 °C

Question: For `CCS(=O)c1cccnc1S(=O)(=O)NC(C)(C)C` (centres undefined), which melting point is on record?
Answer: 129 to 131 °C

Question: For `CCOC(=O)c1c(N2CCN(C)CC2)c2cc(F)ccc2n(Cc2ccccc2)c1=O`, which melting point is on record?
Answer: 156 °C

Question: For `CC1Cc2cc3c(cc2C(c2ccc([N+](=O)[O-])cc2)=NN1c1nc(C(=O)O)cs1)OCO3` (centres undefined), which melting point is on record?
Answer: > 260 °C

Question: Which melting point does the source give for `CN(C)C(=O)c1cn(C)c2nc3cc(F)c(F)cc3cc2c1=O` here?
Answer: 324 °C

Question: With `Cc1[nH]c(=S)n(Nc2ccc(Cl)cc2)c1-c1ccccc1` as the compound, how does the melting point read?
Answer: 212 to 214 °C

Question: Which melting point does the source give for `CC(=O)OC1CCC2(C)C(CCC3C4CCC(C(C)=O)C4(C)CC4OC432)C1` (centres undefined) here?
Answer: 133 to 136 °C

Question: With `Cc1ccc(NC(=O)c2ccc(CN3CCN(C)C(=O)C3)cc2)cc1Nc1nccc(-c2cccnc2)n1` as the compound, how does the melting point read?
Answer: 187 to 192 °C

Question: For `CNS(=O)(=O)c1ccccc1Nc1nc(Nc2ccc3c(c2)CCCC(=O)N3)ncc1Cl`, which melting point is on record?
Answer: 276 to 282 °C

Question: Which melting point does the source give for `C=CCON=C(C(=O)O)c1nc(NC=O)sc1Cl` here?
Answer: 166 to 167 °C

Question: With `O=C(Nc1ccnnc1)Nc1cc(F)cc(F)c1` as the compound, how does the melting point read?
Answer: 272 to 273 °C

Question: Which melting point does the source give for `CCCC(CCC)NC(=O)c1ccc2oc(OCC)nc2c1` here?
Answer: 128 to 129 °C

Question: With `O=C1Nc2ccc(C(F)(F)F)cc2C1c1ncnc2c1cnn2C1CCCCC1` (centres undefined) as the compound, how does the melting point read?
Answer: > 300 °C

Question: Which melting point does the source give for `Cc1ccccc1COc1cccnc1NC(=N)Nc1ccccc1` here?
Answer: 157 to 158 °C

Question: With `COc1ccc(C(=O)NCc2ccc(C)n2CCC#N)cc1OC` as the compound, how does the melting point read?
Answer: 175 to 176 °C

Question: Which melting point does the source give for `CON(C)C(=O)Nc1cccc(OC(C)C(N)=S)c1` (centres undefined) here?
Answer: 95 to 96 °C

Question: With `CN1C(=O)CC[C@]2(C)c3ccc(Sc4cnccn4)cc3CC[C@@H]12` as the compound, how does the melting point read?
Answer: 94 to 95 °C

Question: Which melting point does the source give for `Cc1c(O)cccc1C(=O)N[C@@H](Cc1ccccc1)[C@H](O)C(=O)N1CSC(C)(C)[C@H]1C(=O)N[C@@H]1CCOc2ccccc21` here?
Answer: 135 to 136 °C

Question: For `O=[N+]([O-])c1ccc(C(Cl)=NNc2ccccc2)c(Cl)c1`, which melting point is on record?
Answer: 124 to 126 °C

Question: Which melting point does the source give for `CCN(CC)C(=O)COc1cc2ccccc2c(-c2ccccc2)n1` here?
Answer: 105 °C

Question: With `CC1CC(=O)NN=C1c1ccc(O)cc1` (centres undefined) as the compound, how does the melting point read?
Answer: 268 to 273 °C
